Reference: patent US20040132642A1, “Methods of inhibiting metastasis or growth of a tumor cell” (Government of the U.S.A., represented by the Secretary, …, priority 2002, published 2004)

What was measured:
[1] = system: activated bone-marrow-derived dendritic cells; experiment: in vitro chemotaxis of dendritic cells to CXCL12; type: cell-based; settings: T22 500 ng/ml; 200 ng/ml of CXCL12
[2] = system: CXCR4-B16 cells; experiment: pulmonary metastasis after i.v. injection of CXCR4-B16 cells (lung luciferase assay); type: in vivo, mice; settings: for effect on pulmonary metastasis: CXCR4-B16-injected mice; for effect on pulmonary metastasis / Average weight: 4 μg peptide i.p. daily; for Luciferase activity (RLU): lung, 4 μg peptide/mouse i.p. daily; for Luciferase activity (RLU) / Average weight: CXCR4-B16 cells i.v.; for Average weight: mass of the lungs; for Average Relative Luciferase Units: CXCR4-B16 i.v., 14-day assay
Method: (§1) Luciferase activity was measured using a Luciferase Reporter assay system (Promega, Madison, Wis.). Cultured cells were lysed with 100 μl of undiluted lysis buffer and then assayed in the presence of luciferin using a Thermo Labsystems MLX 96-well luminometer (Helsinki, Finland). Units are in arbitrary light units. For tissue assays, organs from each animal were homogenized in 1 ml of lysis buffer, of which 25 μl aliquots were then assayed in duplicate. Means of duplicates were used to represent the luciferase activity for a given tissue from a particular animal. Five to ten animals per experimental treatment group were used for typical experiments.
(§2) CXCR4- and pLNCX2-B16 cells in exponential growth phase were harvested by trypsinization and washed twice in PBS prior to injection. Cell viability was >95% as determined by trypan blue dye exclusion. For the footpad (i.e., subcutaneous) injection, B16 cells (4×10^5 cells in 20 μl PBS) were subcutaneously injected into the left footpads of C57BL/6 mice. Tumor growth was monitored three times per week by measurement of two maximum perpendicular tumor diameters. When tumors reached 5-7 mm in size, animals were euthanized prior to harvesting of lung and LN. Popliteal LN were removed by gently pulling skin (including the dermis and subcutaneous fat) above the popliteal fossa and carefully exposing the LN resting in the adipose tissue of the fossa with a pair of forceps. For intravenous injection, 4×10^5 CXCR4- or pLNCX2-B16 cells in 200 μl were injected into the tail veins of mice. T22 and ALA peptides in sterile PBS were administered via an intraperitoneal (i.p.) route using 4 μg peptide/mouse daily for the indicated duration of treatment. Experiments were performed 2-4 times each with similar trends.
To determine whether T22 would inhibit the CXCR4-mediated increase in metastasis, mice were injected intravenously with CXCR4-B16 and pLNCX2-B16 cells. Subgroups of CXCR4-B16 mice were treated daily with 4 μg of either T22 or ALA control peptide. CXCR4-B16 cells accumulated in greater numbers in the lung compared to pLNCX2-B16 cells (Table 4), confirming the results described in Example 2.
It has been shown that the CXCR4 inhibitory peptide, T22, blocked pulmonary metastasis of CXCR4-B16 cells when this CXCR4 inhibitor was used daily throughout the course of the 14-day metastastis assay (Murakami et al., Cancer Res. 62:7328-7334 (2002)). To determine if short-term treatment with T22 was also effective in blocking metastasis, the in vivo assay described in Murakami et al., Cancer Res. 62:7328-7334 (2002), was modified and the drug was only given for the first two days of the 14-day waiting period following i.v. injection of CXCR4-B16 and pLNCX2-B16 cells. In one group of animals, the CXCR4 antagonist peptide T22 was administered intraperitoneally (i.p.) shortly after tumor inoculation and again 24 hours later. In another group of CXCR4-B16-injected mice, T22 was given daily for 14 days.
To determine whether T22 treatment during the last 7 days of the metastasis assay could reduce tumor burden, T22 was given daily either during the entire 2-week treatment period or for just the second week (Table 9).
CXCR4-B16 and pLNCX2-B16 cells in exponential growth phase were harvested by trypsinization and washed twice in PBS before injection. Cell viability was >95% as determined by trypan blue dye exclusion. CXCR4-B16 or pLNCX2-B16 cells (4×10^5 in 200 μl PBS) were then injected into the tail veins of mice. T22 and ALA peptides in sterile PBS were administered via an i.p. route using 4 μg peptide/mouse daily for the indicated duration of treatment as described (Murakami et al., Cancer Res. 62:7328-7334 (2002)). Mice were euthanized after 14 days for gross inspection of lungs and luciferase quantification of metastasis by luciferase activity (Murakami et al., Cancer Res. 62:7328-7334 (2002)). […]

[3] = system: CXCR4-B16 cells; experiment: growth of CXCR4-B16 cells under low serum conditions in vitro; type: cell-based, murine; settings: for effect of peptide alone on growth: T22 or ALA alone; for cell count CXCR4-B16 24 h / cell count CXCR4-B16 48 h: low serum (0.5% FCS); for block of growth stimulated by CXCL12: low serum, in the presence of CXCL12
Method: (§3) CXCR4- and pLNCX2-B16 cells (2×10^4 cells/well) were cultured in triplicate for 24 hr in 24-well plates containing B16 growth medium (DMEM, 10% FCS). After rinsing the cells in serum-free DMEM, the B16 cells were incubated for 40 hr at 37° C. in DMEM containing low serum (0.5% FCS). At this point, CXCL12 (500 ng/ml) was added to the cells by itself or with either T22 or control ALA peptide at 1 μg/ml for the indicated times. Cells were then harvested at 24 or 48 hr later and counted by a hemacytometer.

[4] = system: pLNCX2-B16 cells; experiment: growth of pLNCX2-B16 cells under low serum conditions in vitro; type: cell-based, murine; settings: for cell count pLNCX2-B16 24 h / cell count pLNCX2-B16 48 h: low serum (0.5% FCS); for effect on growth of pLNCX2-B16 cells: under either low or high serum conditions
Method: as §3

[5] = system: pLNCX2-B16 cells; experiment: pulmonary metastasis after i.v. injection of pLNCX2-B16 cells (lung luciferase assay); type: in vivo; settings: pLNCX2-B16-injected mice
Method: as §1
CXCR4- and pLNCX2-B16 cells in exponential growth phase were harvested by trypsinization and washed twice in PBS prior to injection. Cell viability was >95% as determined by trypan blue dye exclusion. […] Tumor growth was monitored three times per week by measurement of two maximum perpendicular tumor diameters. […]
CXCR4-B16 and pLNCX2-B16 cells in exponential growth phase were harvested by trypsinization and washed twice in PBS before injection. Cell viability was >95% as determined by trypan blue dye exclusion. […] Mice were euthanized after 14 days for gross inspection of lungs and luciferase quantification of metastasis by luciferase activity (Murakami et al., Cancer Res. 62:7328-7334 (2002)). […]

[6] = system: CXCR4-B16 cells; experiment: growth of CXCR4-B16 cells injected into the footpad; type: in vivo, mice; settings: compared to either PBS or ALA
Method: as §2

[7] = system: CXCR4-B16 cells; experiment: adhesion of CXCR4-B16 cells to resting DMEC in parallel plate flow chamber; type: cell-based, murine; settings: DMEC exposed to 100 ng/ml chemokine for 15 min; 1.5 dynes/cm^2
Method: Prior to interaction with tumor cells, resting confluent DMEC or LMEC were exposed to 100 ng/ml of recombinant CXCL12 or CCL21 for 15 min at 20° C. as described (Cinamon et al., Nat. Immunol. 2: 515-22 (2001)). After unbound chemokine was washed away, calcein-AM-labeled (Molecular Probes, Eugene, Oreg.) CXCR4- or pLNCX2-B16 cells (2.5×10^5/ml in B16 medium) were injected at 1.5 dynes/cm^2 into a parallel plate flow chamber (Glycotech, Gaithersburg, Md.) containing confluent DMEC or LMEC. In some cases, tumor cells were treated with pertussis toxin (PTX, Calbiochem, San Diego, Calif.) at 100 ng/ml for 2 hours at 37° C. to block Gi-protein-coupled signaling. After two min, flow was stopped, which enabled B16 cells to interact with MEC in the absence of shear stress. After 5 min, shear was re-established at 1.5 dynes/cm^2 for up to 2 min in order to detach unbound cells; adherent cells were digitally photographed in 5-6 random fields (each field=1.18 mm^2) with excitation at 488 nm and emission at 513 nm using sufficient exposure time (˜1 s) to allow distinction between non-moving and moving cells (which appeared as dim streaks) (Fitzhugh et al. (2000), supra). Cells were then counted with the software program IPlab (Scanalytics, Fairfax, Va.). […]

[8] = system: CXCR4-B16 cells; experiment: arrest of CXCR4-B16 cells on VCAM-1/Ig-coated plates under flow; type: cell-based, murine; settings: CXCR4-B16 on plates co-coated with VCAM-1/Ig and 1 μg/ml chemokine; 1.5 dynes/cm^2
Method: Cell suspension plates (35 mm, Model # 430588, Corning Inc., NY) were coated with human VCAM-1/IgG chimera (1 μg/ml) overnight at 4° C. in Tris-buffered saline (Maki et al., Immunol. 169:2346-2353 (2002)). Plates were then briefly rinsed with PBS, co-coated with 1 μg/ml of CXCL12, CCL19, or no chemokine in PBS for 2 hr at 4° C., and blocked with 1% BSA/PBS for 1 hr at 4° C. Calcein-acetomethyl (AM)-labeled (Molecular Probes, Eugene, Oreg.) CXCR4-B16 or pLNCX2-B16 cells (2.5×10^5 cells/ml in cDMEM) were injected at 1.5 dynes/cm^2 into a parallel plate flow chamber (Glycotech, Gaithersburg, Md.) that had been placed over the adhesion molecule- and/or chemokine-coated suspension plate.
For dynamic assays on recombinant molecule-coated plates as well as on LMEC, tumor cells were introduced into the chamber under a constant shear stress of 1.5 dynes/cm^2 without allowing cells to settle at any time during the assay. Ten min after flow was initiated, arrested cells were digitally photographed (without flow being decreased) in 4-6 random fields (each field=1.18 mm^2) with excitation at 488 nm and emission at 513 nm using sufficient exposure time (˜1 s) to allow distinction between moving cells, which appeared as dim streaks, and stationary cells. Cells were then enumerated with the software program IPlab (Scanalytics, Fairfax, Va.). […]

[9] = peptide 1 μg/ml together with SDF-1 (CXCL12 500 ng/ml)
[10] = treatment alone, CXCL12 500 ng/ml, peptide 1 μg/ml

Substance	block of in vitro chemotaxis to CXCL12 [1]	effect on pulmonary metastasis [2]	Luciferase activity (RLU) [2] [RLU]	Average weight [2] [g]	effect of peptide alone on growth [3]	cell count CXCR4-B16 24 h [3, 9]	cell count CXCR4-B16 48 h [3, 9]	cell count CXCR4-B16 24 h [3, 10]	cell count CXCR4-B16 48 h [3, 10]	block of growth stimulated by CXCL12 [3]	cell count pLNCX2-B16 24 h [4, 9]	cell count pLNCX2-B16 48 h [4, 9]	cell count pLNCX2-B16 24 h [4, 10]	cell count pLNCX2-B16 48 h [4, 10]	effect on growth of pLNCX2-B16 cells [4]	also measured
H-KWAFRVAYRGIAYRRAR-OH [ALA, reference compound]	no inhibitory effect	no effect	43928 ± 29729	0.88	did not significantly alter growth	16.0 ± 1.0	33.3 ± 6.7	12.0 ± 0.1	22.3 ± 1.2	but not by the control peptide	10.7 ± 2.9	22.7 ± 3.2	10.0 ± 1.0	20.3 ± 3.5	did not affect the growth	–
NH2-RRWCYRKCYKGYCYRKCR-COOH (H-RRWCYRKCYKGYCYRKCR-OH; cysteine pairing not given here) [T22]	block specifically	reduced metastasis to levels seen in pLNCX2-B16 injected mice	1114 ± 956	0.55	did not significantly alter growth	12.7 ± 2.1	20.7 ± 3.0	11.0 ± 1.0	22.0 ± 1.0	could be blocked	12.3 ± 0.6	21.7 ± 3.2	10.7 ± 1.2	21.0 ± 1.0	did not affect the growth	Average Relative Luciferase Units ([2]; T22 daily 2nd week only): 81981.2 Relative Luciferase Units; Average Relative Luciferase Units ([2]; T22 daily for 2 weeks): 15294.5 Relative Luciferase Units; protection against CXCR4-mediated pulmonary metastasis ([2]; T22 i.p. for the first two days of the 14-day assay): as effective as giving T22 daily for the entire 2-week course; metastatic burden ([2]; T22 treatment during the second week only): same metastatic burden as PBS (mock) treatment; effect on metastasis [5]: did not block metastasis; effect on growth of cells injected into the footpad [6]: no significant effect on the growth
CCL19: an unrelated chemokine used as control	–	–	–	–	–	–	–	–	–	–	–	–	–	–	–	adherent B16-CXCR4 cells on DMEC (Table 6) [7]: 6.8; Mean adherent cells/field [8]: 17.2 cells/field
